Test: an = ratio of the nth substance listed, in mol/kg
Settings: 101 kPa, Liquid, Vibrating tube method

CC[N+](CC)(CC)CC.[O-][Cl+3]([O-])([O-])[O-] [tetraethylammonium perchlorate] + CN(C)C=O
mass density [kg/m3]
Settings	a1 = 0.02269	a1 = 0.04218	a1 = 0.06274	a1 = 0.08215	a1 = 0.1147	a1 = 0.1455	a1 = 0.1761	a1 = 0.2062
283.15 K	959.351	960.443	961.586	962.663	964.449	966.152	967.825	969.465
293.15 K	949.863	950.975	952.142	953.234	955.047	956.775	958.473	960.139
298.15 K	945.114	946.237	947.409	948.513	950.338	952.082	953.791	955.471
303.15 K	940.349	941.482	942.667	943.781	945.623	947.378	949.101	950.793
313.15 K	930.795	931.951	933.155	934.288	936.165	937.945	939.7	941.419
323.15 K	921.19	922.369	923.599	924.748	926.661	928.473	930.257	932.007
333.15 K	911.533	912.731	913.987	915.156	917.106	918.957	920.766	922.55

— the NIST ThermoML archive (doi:10.1016/j.jct.2005.05.008)
